Results as given in article doi:10.1101/2022.12.25.521909v1 (biorxiv, 2022).

Target: T1, human ABCC4 (ABCC4/MRP4) (Homo sapiens, UniProt O15439)
T1 sequence (O15439 1-1325): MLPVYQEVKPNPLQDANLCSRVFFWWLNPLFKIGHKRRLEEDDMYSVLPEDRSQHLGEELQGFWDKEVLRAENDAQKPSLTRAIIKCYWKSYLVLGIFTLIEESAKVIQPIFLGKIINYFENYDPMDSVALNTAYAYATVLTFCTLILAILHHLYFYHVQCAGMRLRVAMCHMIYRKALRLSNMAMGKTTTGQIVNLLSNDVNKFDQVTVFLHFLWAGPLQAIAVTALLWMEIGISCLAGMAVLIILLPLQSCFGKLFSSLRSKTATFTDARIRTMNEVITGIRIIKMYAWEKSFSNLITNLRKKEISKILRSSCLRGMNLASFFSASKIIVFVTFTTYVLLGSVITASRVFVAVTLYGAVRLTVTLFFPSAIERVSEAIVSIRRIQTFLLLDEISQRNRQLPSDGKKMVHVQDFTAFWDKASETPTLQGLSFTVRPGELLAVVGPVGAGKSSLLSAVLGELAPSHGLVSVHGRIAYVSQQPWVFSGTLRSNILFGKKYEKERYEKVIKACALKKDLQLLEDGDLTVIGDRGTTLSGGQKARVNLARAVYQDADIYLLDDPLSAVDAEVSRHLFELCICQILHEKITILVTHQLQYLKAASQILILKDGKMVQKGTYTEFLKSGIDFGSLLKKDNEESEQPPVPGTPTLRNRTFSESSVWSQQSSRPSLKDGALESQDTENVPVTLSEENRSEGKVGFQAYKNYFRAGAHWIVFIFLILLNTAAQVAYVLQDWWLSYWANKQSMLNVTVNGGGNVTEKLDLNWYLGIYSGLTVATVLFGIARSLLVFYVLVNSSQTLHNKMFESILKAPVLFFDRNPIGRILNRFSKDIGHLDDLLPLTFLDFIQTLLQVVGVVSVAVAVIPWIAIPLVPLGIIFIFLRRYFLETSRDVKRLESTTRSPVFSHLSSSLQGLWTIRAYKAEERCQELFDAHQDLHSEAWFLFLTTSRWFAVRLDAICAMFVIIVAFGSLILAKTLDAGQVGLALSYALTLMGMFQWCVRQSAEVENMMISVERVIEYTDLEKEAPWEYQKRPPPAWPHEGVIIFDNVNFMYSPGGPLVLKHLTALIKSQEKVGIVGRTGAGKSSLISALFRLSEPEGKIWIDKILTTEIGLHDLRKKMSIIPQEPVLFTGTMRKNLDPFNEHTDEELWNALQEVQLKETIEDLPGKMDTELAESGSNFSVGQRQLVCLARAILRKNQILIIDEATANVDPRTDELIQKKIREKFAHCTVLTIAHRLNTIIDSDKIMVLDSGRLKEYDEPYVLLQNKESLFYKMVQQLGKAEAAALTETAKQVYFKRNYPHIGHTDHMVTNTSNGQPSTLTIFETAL
Test: inhibition of basal ATPase activity, ABCC4 in lipid nanodiscs, logistic fit
Type: biochemical

## OCCN(CCO)c1nc(N2CCCCC2)c2nc(N(CCO)CCO)nc(N3CCCCC3)c2n1 [dipyridamole]
  IC50: ~2100 nM
